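Compound exposure: 48 hours, 5 concentrations, 96-well plates. TGI: concentration producing complete growth inhibition.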
Key:
Assay in all cases: NCI anticancer screen, dose series, 48 h
[1] = tested on: CCRF-CEM leukemia
[2] = tested on: U251 CNS
[3] = tested on: HCT-116 colon
[4] = tested on: HCC-2998 colon
[5] = tested on: DU-145 prostate
[6] = tested on: MDA-MB-231 breast
[7] = tested on: MCF7 breast
[8] = tested on: MDA-MB-435
[9] = tested on: SF-539 CNS
[10] = tested on: BT-549 breast
[11] = tested on: A498 renal
[12] = tested on: NCI-H460 lung
[13] = tested on: CAKI-1 renal
[14] = tested on: ACHN renal
[15] = tested on: OVCAR-3 ovarian
[16] = tested on: OVCAR-8 ovarian
[17] = tested on: K-562 leukemia
[18] = tested on: IGROV1 ovarian
[19] = tested on: M14 melanoma
[20] = tested on: RXF 393 renal
[21] = tested on: SN12C renal
[22] = tested on: HOP-92 NSCLC
[23] = tested on: UACC-62 melanoma
[24] = tested on: SK-MEL-2 melanoma
[25] = tested on: MOLT-4 leukemia
[26] = tested on: SF-295 CNS
[27] = tested on: HL-60(TB) leukemia
[28] = tested on: SF-268 CNS
[29] = tested on: UACC-257 melanoma
[30] = tested on: SK-MEL-28 melanoma
[31] = tested on: SK-MEL-5 melanoma
[32] = tested on: 786-0 renal
[33] = tested on: TK-10 renal
[34] = tested on: SW-620 colon
[35] = tested on: RPMI-8226 leukemia
[36] = tested on: NCI-H23 lung
[37] = tested on: HT29 colon
[38] = tested on: PC-3 prostate
[39] = tested on: HCT-15 colon
[40] = tested on: OVCAR-5 ovarian
[41] = tested on: OVCAR-4 ovarian
[42] = tested on: T-47D breast
[43] = tested on: A549 NSCLC
[44] = tested on: SK-OV-3 ovarian
[45] = tested on: COLO 205 colon
[46] = tested on: UO-31 renal
[47] = tested on: SNB-75 CNS
[48] = tested on: KM12 colon
[49] = tested on: HS 578T breast
[50] = tested on: HOP-62 NSCLC
[51] = tested on: SR leukemia
[52] = tested on: EKVX NSCLC
[53] = tested on: LOX IMVI melanoma
[54] = tested on: NCI/ADR-RES ovarian
[55] = tested on: MDA-N
[56] = tested on: NCI-H226 lung
[57] = tested on: MALME-3M melanoma
[58] = tested on: SNB-19 CNS
[59] = tested on: NCI-H522 lung

c1cc2c3ccsc3c3sccc3c2s1
TGI [1]: > 100 µM
TGI [2]: > 100 µM
TGI [3]: > 100 µM
TGI [4]: > 100 µM
TGI [5]: > 100 µM
TGI [6]: > 100 µM
TGI [7]: > 100 µM
TGI [8]: > 100 µM
TGI [9]: > 100 µM
TGI [10]: > 100 µM
TGI [11]: > 100 µM
TGI [12]: > 100 µM
TGI [13]: > 100 µM
TGI [14]: > 100 µM
TGI [15]: > 100 µM
TGI [16]: > 100 µM
TGI [17]: > 100 µM
TGI [18]: > 100 µM
TGI [19]: > 100 µM
TGI [20]: > 100 µM
TGI [21]: > 100 µM
TGI [22]: > 100 µM
TGI [23]: > 100 µM
TGI [24]: > 100 µM
TGI [25]: > 100 µM
TGI [26]: > 100 µM
TGI [27]: > 100 µM
TGI [28]: > 100 µM
TGI [29]: > 100 µM
TGI [30]: > 100 µM
TGI [31]: > 100 µM
TGI [32]: > 100 µM
TGI [33]: > 100 µM
TGI [34]: > 100 µM
TGI [35]: > 100 µM
TGI [36]: > 100 µM
TGI [37]: > 100 µM
TGI [38]: > 100 µM
TGI [39]: > 100 µM
TGI [40]: > 100 µM
TGI [41]: > 100 µM
TGI [42]: > 100 µM
TGI [43]: > 100 µM
TGI [44]: > 100 µM
TGI [45]: > 100 µM
TGI [46]: > 100 µM
TGI [47]: > 100 µM
TGI [48]: > 100 µM
TGI [49]: 71.8 µM
TGI [50]: 70.5 µM
TGI [51]: > 100 µM
TGI [52]: > 100 µM
TGI [53]: > 100 µM
TGI [54]: > 100 µM
TGI [55]: > 100 µM
TGI [56]: > 100 µM

C=CCN1C(=O)CS/C1=N\NC(=O)CSc1nc2ccccc2c(=O)n1CC
TGI [1]: > 100 µM
TGI [2]: > 100 µM
TGI [3]: > 100 µM
TGI [4]: > 100 µM
TGI [5]: > 100 µM
TGI [6]: > 100 µM
TGI [7]: > 100 µM
TGI [8]: > 100 µM
TGI [9]: > 100 µM
TGI [10]: > 100 µM
TGI [11]: > 100 µM
TGI [12]: 44.4 µM
TGI [57]: > 100 µM
TGI [13]: > 100 µM
TGI [14]: > 100 µM
TGI [15]: > 100 µM
TGI [16]: > 100 µM
TGI [17]: > 100 µM
TGI [18]: > 100 µM
TGI [19]: > 100 µM
TGI [58]: > 100 µM
TGI [20]: > 100 µM
TGI [21]: > 100 µM
TGI [23]: > 100 µM
TGI [24]: > 100 µM
TGI [25]: > 100 µM
TGI [26]: > 100 µM
TGI [27]: > 100 µM
TGI [28]: > 100 µM
TGI [29]: > 100 µM
TGI [30]: > 100 µM
TGI [31]: > 100 µM
TGI [32]: > 100 µM
TGI [33]: > 100 µM
TGI [34]: > 100 µM
TGI [35]: > 100 µM
TGI [36]: > 100 µM
TGI [37]: > 100 µM
TGI [38]: > 100 µM
TGI [39]: > 100 µM
TGI [40]: > 100 µM
TGI [41]: > 100 µM
TGI [42]: > 100 µM
TGI [43]: > 100 µM
TGI [44]: > 100 µM
TGI [59]: > 100 µM
TGI [45]: > 100 µM
TGI [46]: > 100 µM
TGI [47]: > 100 µM
TGI [48]: > 100 µM
TGI [49]: > 100 µM
TGI [50]: > 100 µM
TGI [51]: > 100 µM
TGI [52]: > 100 µM
TGI [53]: > 100 µM
TGI [54]: > 100 µM
TGI [55]: > 100 µM
TGI [56]: > 100 µM

COc1cc(-c2ccccc2)cn2c1nc1ccccc12
TGI [1]: 70.7 µM
TGI [2]: 52.2 µM
TGI [3]: 39.5 µM
TGI [4]: 33.7 µM
TGI [5]: > 100 µM
TGI [6]: 49.8 µM
TGI [7]: 35.4 µM
TGI [8]: 43.4 µM
TGI [9]: 50.4 µM
TGI [10]: 32.9 µM
TGI [12]: 49.4 µM
TGI [57]: 41.9 µM
TGI [13]: 52.3 µM
TGI [14]: 49.2 µM
TGI [15]: 40.8 µM
TGI [16]: 64.4 µM
TGI [17]: 67.1 µM
TGI [18]: 55.9 µM
TGI [19]: 43.4 µM
TGI [58]: 69.3 µM
TGI [20]: 34.6 µM
TGI [21]: 46.2 µM
TGI [22]: 32 µM
TGI [23]: 43.9 µM
TGI [24]: 44 µM
TGI [25]: 45.9 µM
TGI [27]: 53.2 µM
TGI [28]: 79.4 µM
TGI [29]: 47.5 µM
TGI [30]: 33.2 µM
TGI [31]: 37.9 µM
TGI [32]: 34.7 µM
TGI [34]: > 100 µM
TGI [35]: 62 µM
TGI [36]: > 100 µM
TGI [37]: 35.5 µM
TGI [38]: 50.8 µM
TGI [39]: 43.2 µM
TGI [40]: 31.7 µM
TGI [42]: 83.6 µM
TGI [43]: 51.4 µM
TGI [44]: 59.7 µM
TGI [59]: 40.6 µM
TGI [45]: 39.1 µM
TGI [46]: 32.4 µM
TGI [47]: 43.2 µM
TGI [48]: 36.1 µM
TGI [49]: 71.4 µM
TGI [50]: 43.6 µM
TGI [51]: 99.6 µM
TGI [53]: 52.4 µM
TGI [54]: 66.7 µM
TGI [55]: 37.3 µM
TGI [56]: 39.7 µM

COC(=O)c1cc2c(cc1C(=O)OC)[C@@]1(C)CCCC(C)(C)C1CC2 (some centres undefined)
TGI [1]: 42.1 µM
TGI [2]: 40.4 µM
TGI [3]: 45.8 µM
TGI [4]: 34.4 µM
TGI [5]: 33.7 µM
TGI [6]: 41.8 µM
TGI [7]: 32.7 µM
TGI [8]: > 100 µM
TGI [9]: 95.7 µM
TGI [10]: 85.9 µM
TGI [11]: 32.4 µM
TGI [12]: 43.8 µM
TGI [57]: 15.3 µM
TGI [14]: 36.4 µM
TGI [15]: 25 µM
TGI [16]: 74 µM
TGI [17]: 76.1 µM
TGI [18]: 31.5 µM
TGI [19]: 70.8 µM
TGI [58]: 53.7 µM
TGI [20]: 23.2 µM
TGI [21]: 35.2 µM
TGI [22]: 26.2 µM
TGI [23]: 32.5 µM
TGI [24]: 46.7 µM
TGI [25]: > 100 µM
TGI [26]: 37 µM
TGI [27]: 31.9 µM
TGI [28]: 31.2 µM
TGI [29]: 62.8 µM
TGI [30]: > 100 µM
TGI [31]: 35.4 µM
TGI [32]: 36.7 µM
TGI [33]: 39 µM
TGI [34]: 42.2 µM
TGI [35]: 34.3 µM
TGI [36]: > 100 µM
TGI [37]: 58.2 µM
TGI [38]: 51.1 µM
TGI [39]: 35.3 µM
TGI [40]: 38.1 µM
TGI [41]: > 100 µM
TGI [42]: 9.58 µM
TGI [43]: 55.9 µM
TGI [59]: 41.5 µM
TGI [46]: 35 µM
TGI [47]: 82.1 µM
TGI [48]: 30.6 µM
TGI [49]: 44.9 µM
TGI [50]: 61.6 µM
TGI [51]: 57.7 µM
TGI [52]: 30.1 µM
TGI [53]: 36 µM
TGI [54]: 40.8 µM
TGI [55]: 78.8 µM
TGI [56]: 33.8 µM

Source: PubChem BioAssay (NCI)
